According to PubChem BioAssay AID2060897 (Molecular Pharmacology Branch, DTP, NCI, 2025):
pIC50: −log10 of the molar value.

System: 966289-007-R4-J1-PDC complex spheroid viability
Assay: Anticancer human tumor 966289-007-R4-J1-PDC patient-derived pancreatic adenocarcinoma cell line growth inhibition [RAS]
Conditions: for pIC50: curve of first compound; for viability, T/C: stronger effect = lower value
Source text: RAS pathway inhibitors in Combinations in Complex Spheroids
A high-throughput screen of multi-cell type tumor spheroids was designed to identify active combinations of RAS pathway inhibitors and targeted small molecules. Complex spheroids include a stromal component modeled by human endothelial cells (HUVEC) and fibroblasts modeled by human mesenchymal stem cells (MSCs). The concentration ranges selected for each drug and investigational agent were based upon clinically achievable concentrations if the clinical Cmax of the agent was known.
Compounds. The drugs and investigational agents: abemaciclib (NSC768073), cobimetinib (NSC768068), divarasib (GDC6063, NSC841802), docetaxel (NSC628503), GDC-1971 (RLY-1971, NSC841576), gemcitabine (NSC613327), inavolisib (NSC800729), ipatasertib (NSC767898), KB-0742 (NSC834161), MRTX-1133 (NSC836407), osimertinib (NSC779217), RMC-4630 (NSC839698), RMC-6236 (NSC851965), RMC-6291 (NSC852671), Ro-3306 (NSC812927), sapanisertib (NSC764658), SN-38 (NSC673596), staurosporine (NSC755774), SY5609 (NSC837396), and tovorafenib (DAY101, NSC766906), were obtained from the National Cancer Institute (NCI) Developmental Therapeutics Program Chemical Repository. The FDA-approved anticancer drug set is available from the NCI Developmental Therapeutics Program. […] The stock solutions were prepared in dimethyl sulfoxide (DMSO, Sigma-Aldrich, St. Louis, MO, cat. D2650) at 800-fold the tested concentration and stored at -70 degrees C prior to their use. All drugs and investigational agents were tested over a range starting from a high concentration at or near the clinical Cmax and decreasing in half-log increments. If the clinical Cmax for an agent had not been determined, the highest concentration tested was 10 microM.
Cell Culture. All cells were maintained in an incubator at 37 degrees C and 5% CO2 with 95% humidity. The PDC lines were cultured according to standard operating procedures established by the NCI PDMR. All PDCs were thawed and cultured in Matrigel-coated flasks prepared with a working solution of 1X Ham's F-12 nutrient mix, without supplementation (Invitrogen, Waltham, MA, cat. 11765054), 100 U/mL penicillin-streptomycin (Invitrogen, cat. 15140122), and 2.5% Matrigel (Corning Inc., Corning, NY, cat. 354248) for the first three passages. The 362531-283-R-J2-PDC and 782815-120-R-J1-PDC lines were cultured in 6C/Colon 1B media, which includes advanced DMEM/F-12 (Thermo Fisher Scientific, cat. 12634028), 10 mM HEPES (Thermo Fisher Scientific, cat. 15630080), 1X GlutaMAX supplement (Thermo Fisher Scientific, cat. 35050061), 0.1 mg/mL primocin (InvivoGen, San Diego, CA, cat. ant-pm-2), 10% defined fetal bovine serum, heat inactivated (HyClone Laboratories Inc., Logan, UT, cat. SH30070.03HI), 50% L-WRN conditioned media (ATCC, cat. CRL-3276), 1.25 mM N-Acetyl-L-cysteine (Sigma-Aldrich, cat. A9165), 10 mM nicotinamide (Sigma-Aldrich, cat. N0636), 1X B-27 supplement (Thermo Fisher Scientific, cat. 17504044), 1X N-2 supplement (Thermo Fisher Scientific, cat. 17502048), 50 ng/mL human EGF (Thermo Fisher Scientific, cat. PHG0311), and 10 microM Y-27632 dihydrochloride (Tocris Bioscience, cat. 1254). The K12877-001-R-J1-PDC line was cultured in 6I media, which includes all 6C/Colon 1B media plus 10 ng/mL human FGF-10 (PeproTech, cat. 100-26), 1 ng/mL human FGF-2 (PeproTech, cat. 100-18B), 1 µM prostaglandin E2 (Tocris Bioscience, cat. 2296), […] hydrocortisone (Sigma-Aldrich, cat. H4001), and […] bovine insulin (Sigma-Aldrich, cat. I6634). The K86415-001-R-J1-PDC line was cultured in 6D media, which includes all 6C/Colon 1B media components minus the L-WRN conditioned media. The 485176-168-R4-J1-PDC was cultured in PANC media, which includes all 6C/Colon 1B media plus 100 ng/mL human FGF-10 (PeproTech, cat. 100-26), 500 nM SB-431542 (Selleckchem, cat. S1067), and 10 nM gastrin (Tocris Bioscience, cat. 3006). […]
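Note: spheroids exposed to agents for one week before readout.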
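Throughout, for viability, T/C: percent viability relative to DMSO vehicle control wells as 100%.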

Which results are given for `CC(Nc1ccc2c(c1)OCCn1cc(N3C(=O)OCC3C(F)F)nc1-2)C(N)=O` (configuration not stated) + CCn1c(-c2cc(N3CCN(C)CC3)cnc2C(C)OC)c2c3cc(ccc31)-c1csc(n1)CC(NC(=O)C1CC1C)C(=O)N1CCCC(N1)C(=O)OCC(C)(C)C2?
pIC50 (second compound 0.000949 µM): < 5.00; pIC50 (second compound 0.003 µM): < 5.00; pIC50 (second compound 0.00949 µM): < 5.00; pIC50 (second compound 0.03 µM): < 5.00; pIC50 (second compound 0.0949 µM): < 5.00; pIC50 (second compound 0.3 µM): < 5.00; viability, T/C (second compound 0.000949 µM, first compound 0.0316 µM): 126%; viability, T/C (second compound 0.000949 µM, first compound 0.1 µM): 124%; viability, T/C (second compound 0.000949 µM, first compound 0.316 µM): 105%; viability, T/C (second compound 0.000949 µM, first compound 1 µM): 92.2%; viability, T/C (second compound 0.000949 µM, first compound 3.16 µM): 110%; viability, T/C (second compound 0.000949 µM, first compound 10 µM): 103%; viability, T/C (second compound 0.003 µM, first compound 0.0316 µM): 115%; viability, T/C (second compound 0.003 µM, first compound 0.1 µM): 104%; viability, T/C (second compound 0.003 µM, first compound 0.316 µM): 108%; viability, T/C (second compound 0.003 µM, first compound 1 µM): 83.7%; viability, T/C (second compound 0.003 µM, first compound 3.16 µM): 96.8%; viability, T/C (second compound 0.003 µM, first compound 10 µM): 99.3%; viability, T/C (second compound 0.00949 µM, first compound 0.0316 µM): 123%; viability, T/C (second compound 0.00949 µM, first compound 0.1 µM): 113%; viability, T/C (second compound 0.00949 µM, first compound 0.316 µM): 104%; viability, T/C (second compound 0.00949 µM, first compound 1 µM): 96%; viability, T/C (second compound 0.00949 µM, first compound 3.16 µM): 111%; viability, T/C (second compound 0.00949 µM, first compound 10 µM): 95.2%; viability, T/C (second compound 0.03 µM, first compound 0.0316 µM): 84.6%; viability, T/C (second compound 0.03 µM, first compound 0.1 µM): 97%; viability, T/C (second compound 0.03 µM, first compound 0.316 µM): 133%; viability, T/C (second compound 0.03 µM, first compound 1 µM): 92.2%; viability, T/C (second compound 0.03 µM, first compound 3.16 µM): 122%; viability, T/C (second compound 0.03 µM, first compound 10 µM): 95%; viability, T/C (second compound 0.0949 µM, first compound 0.0316 µM): 91.6%; viability, T/C (second compound 0.0949 µM, first compound 0.1 µM): 119%; viability, T/C (second compound 0.0949 µM, first compound 0.316 µM): 104%; viability, T/C (second compound 0.0949 µM, first compound 1 µM): 101%; viability, T/C (second compound 0.0949 µM, first compound 3.16 µM): 114%; viability, T/C (second compound 0.0949 µM, first compound 10 µM): 88.4%; viability, T/C (second compound 0.3 µM, first compound 0.0316 µM): 121%; viability, T/C (second compound 0.3 µM, first compound 0.1 µM): 108%; viability, T/C (second compound 0.3 µM, first compound 0.316 µM): 90.3%; viability, T/C (second compound 0.3 µM, first compound 1 µM): 94.5%; viability, T/C (second compound 0.3 µM, first compound 3.16 µM): 123%; viability, T/C (second compound 0.3 µM, first compound 10 µM): 92%
